Experiment [1] has as its target T1, 5HT2A receptor (Homo sapiens, UniProt P28223). The experiment in a line: biochemical. The class given is binding. More on the design: expressed in transfected cells; crude membranes.
Experiment [2] has as its target T1, 5HT2A receptor. The experiment in a line: cell-based. Set-up: expressed in transfected cells; host or cells: HEK293T cells, transient co-transfection. Particulars: for Emax: HEK-293T.
Setting [3] is: 5HT2A Ki (nM), secondary radioligand binding, Ki from IC50 by Cheng-Prusoff.
[4] abbreviates: 5HT2A Gq EC50 (nM), BRET2 Gαq dissociation, HEK293T cells.
Setting [5] is: BRET2 Gαq dissociation, HEK293T cells, normalized to 5-HT, read-out: 5HT2A Gq Emax (%).
Setting [6] is: 5HT2A Ki (nM), secondary binding assay, Cheng-Prusoff.
[7] abbreviates: 5HTA Gq EC50 (nM), BRET2 Gαq dissociation, HEK293T.
Where [8] appears, read: read-out: 5HTA Gq Emax (%), BRET2 Gαq dissociation, HEK293T, normalized to 5-HT.
Where [9] appears, read: BRET2 Gαq dissociation, HEK293T, read-out: 5HTA Gq EC50.
The mark [10] stands for this setting: BRET2 Gαq dissociation, HEK293T, normalized to 5-HT, read-out: 5HTA Gq Emax (%).

Where two headings read alike, the source gives them in different places.

From US20260265246A1 (ICAHN SCHOOL OF MEDICINE AT MOUNT SINAI, priority 2021, published 2026) come the findings set out here.

T1 sequence (P28223 whole entry): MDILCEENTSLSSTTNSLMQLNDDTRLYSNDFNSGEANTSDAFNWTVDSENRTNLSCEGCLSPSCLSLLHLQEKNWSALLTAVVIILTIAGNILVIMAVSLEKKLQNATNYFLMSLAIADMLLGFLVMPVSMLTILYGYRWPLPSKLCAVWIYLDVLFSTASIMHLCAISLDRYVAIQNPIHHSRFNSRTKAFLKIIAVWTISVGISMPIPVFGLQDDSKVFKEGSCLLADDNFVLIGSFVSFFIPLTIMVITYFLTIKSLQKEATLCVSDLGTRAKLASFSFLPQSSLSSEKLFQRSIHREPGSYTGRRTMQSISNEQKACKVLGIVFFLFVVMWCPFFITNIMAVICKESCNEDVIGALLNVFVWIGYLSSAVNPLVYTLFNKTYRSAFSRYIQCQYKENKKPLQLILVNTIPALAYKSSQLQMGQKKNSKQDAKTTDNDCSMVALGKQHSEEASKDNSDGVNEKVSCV

As a reminder, the Ki is the equilibrium dissociation constant of an inhibitor or competing ligand from its target. Usually EC50 stands for the midpoint of the concentration-response curve. Broadly, the Emax is the size of the effect at its maximum, as opposed to the concentration needed. In turn, `Cn1cc(C2=CCCNC2)c2cccnc21` [Example 47, 1-methyl-3-(1,2,5,6-tetrahydropyridin-3-yl)-1H-pyrrolo[2,3-b]pyridine] came in with a Ki on 5HT2A receptor [1] (setting [3]) of 796 nM. The molecule further yielded an EC50 on 5HT2A receptor [2] (setting [4]) of 379 nM. In addition, the Emax on 5HT2A receptor [2] (setting [5]) was found to be 48.7%.
On to `Cc1cccc2c(C3CNC3)c[nH]c12` [Example 258, 3-(azetidin-3-yl)-7-methyl-1H-indole], for which the affinity on 5HT2A receptor [1] (setting [6]), expressed as Ki, was 674 nM. At 5HT2A receptor [2] (setting [7]), this molecule registered an EC50 of 444 nM. Further, the Emax at 5HT2A receptor [2] (setting [8]) came out at 82.1%.
In turn, `Cc1[nH]c2ccccc2c1C1=CCCN(C)C1` [Example 63, 2-methyl-3-(1-methyl-1,2,5,6-tetrahydropyridin-3-yl)-1H-indole] registered a Ki on 5HT2A receptor [1] (setting [3]) of 823 nM. The same molecule came in with an EC50 at 5HT2A receptor [2] (setting [4]) of 162 nM. Further, the Emax on 5HT2A receptor [2] (setting [5]) amounted to 79%.
`Clc1cccc2c(C3=CCNCC3)n[nH]c12` [Example 241, 7-chloro-3-(1,2,3,6-tetrahydropyridin-4-yl)-1H-indazole] had a Ki on 5HT2A receptor [1] (setting [6]) of 376 nM. On 5HT2A receptor [2] (setting [9]), the EC50 came to 65 nM. Also, at 5HT2A receptor [2] (setting [10]), the Emax was found to be 63.4%.
In turn, `Clc1cccc2c(C3CC4CCC(C3)N4)n[nH]c12` (stereo not drawn) [Example 225, 3-(8-azabicyclo[3.2.1]octan-3-yl)-7-chloro-1H-indazole] yielded an inhibition constant (Ki) on 5HT2A receptor [1] (setting [6]) of 2110 nM. For the same molecule, it took 500 nM to reach a half-maximal effect at 5HT2A receptor [2] (setting [7]) (EC50). For the same molecule, the maximum response (Emax) at 5HT2A receptor [2] (setting [10]) was 105%.
`CCCN1CCC2CC2(c2n[nH]c3c(Cl)cccc23)C1` (stereo not drawn) [Example 182, 7-chloro-3-(3-propyl-3-azabicyclo[4.1.0]heptan-1-yl)-1H-indazole] had a Ki on 5HT2A receptor [1] (setting [6]) of 2470 nM. On 5HT2A receptor [2] (setting [7]), the EC50 was found to be 786 nM. Moreover, the Emax on 5HT2A receptor [2] (setting [10]) is 78.9%.
On 5HT2A receptor [1] (setting [6]), `CC(F)(F)CN1CCC=C(c2n[nH]c3c(Cl)cccc23)C1` [Example 163, 7-chloro-3-(1-(2,2-difluoropropyl)-1,2,5,6-tetrahydropyridin-3-yl)-1H-indazole] showed a Ki of more than 10000 nM. Also, the EC50 on 5HT2A receptor [2] (setting [7]) worked out at 604 nM. The Emax at 5HT2A receptor [2] (setting [10]) came to 82.4%.
As to `Fc1cc(Cl)c2[nH]nc(C34CNCCC3C4)c2c1` (stereo not drawn) [Example 196, 3-(3-azabicyclo[4.1.0]heptan-1-yl)-7-chloro-5-fluoro-1H-indazole], affinity at 5HT2A receptor [1] (setting [6]) was put at a Ki of 910 nM. The molecule further displayed an EC50 at 5HT2A receptor [2] (setting [7]) of 220 nM. Further, at 5HT2A receptor [2] (setting [10]), the Emax is 67%.
`Clc1cccc2c(C3=CN4CCC3CC4)c[nH]c12` [Example 250, 3-(7-chloro-1H-indol-3-yl)-1-azabicyclo[2.2.2]oct-2-ene]: affinity at 5HT2A receptor [1] (setting [6]) was put at a Ki of 1630 nM. At 5HT2A receptor [2] (setting [7]), this molecule had an EC50 of 1290 nM. For the same molecule, at 5HT2A receptor [2] (setting [10]), the maximal response (Emax) is 73.1%.
As to `CCc1ccc2[nH]cc(C3=CCCNC3)c2c1` [Example 25, 5-ethyl-3-(1,2,5,6-tetrahydropyridin-3-yl)-1H-indole], the Ki at 5HT2A receptor [1] (setting [3]) came out at 941 nM. This molecule had an EC50 at 5HT2A receptor [2] (setting [4]) of 592 nM. Also, the Emax on 5HT2A receptor [2] (setting [5]) is 73.3%.
As to `Fc1cc(Cl)c2[nH]cc(C3CNCCO3)c2c1` (stereo not drawn) [Example 249, 2-(7-chloro-5-fluoro-1H-indol-3-yl)morpholine], at 5HT2A receptor [1] (setting [6]), affinity was put at a Ki of 1020 nM. At 5HT2A receptor [2] (setting [7]), this molecule displayed an EC50 of 118 nM. At 5HT2A receptor [2] (setting [10]), the maximum response (Emax) stood at 72.2%.
On 5HT2A receptor [1] (setting [6]), `CCCN1CCC=C(c2n[nH]c3c(Cl)cc(F)cc23)C1` [Example 173, 7-chloro-5-fluoro-3-(1-propyl-1,2,5,6-tetrahydropyridin-3-yl)-1H-indazole] registered a Ki of 839 nM. Besides, the half-maximal effective concentration (EC50) at 5HT2A receptor [2] (setting [9]) was found to be 84.6 nM. Also, the Emax at 5HT2A receptor [2] (setting [10]) is 57.3%.
Regarding `CCCN(CCC)C1CCC=C(c2n[nH]c3c(Cl)cccc23)C1` (stereo not drawn) [Example 172, 3-(7-chloro-1H-indazol-3-yl)-N,N-dipropylcyclohex-3-en-1-amine], on 5HT2A receptor [1] (setting [6]), the Ki was more than 10000 nM. On 5HT2A receptor [2] (setting [7]), this molecule showed an EC50 of 4020 nM. Moreover, on 5HT2A receptor [2] (setting [10]), the Emax was determined as 66.4%.
`Fc1cccc2c(C34CNCCC3C4)n[nH]c12` (stereo not drawn) [Example 194, 3-(3-azabicyclo[4.1.0]heptan-1-yl)-7-fluoro-1H-indazole] returned an inhibition constant (Ki) at 5HT2A receptor [1] (setting [6]) of 2480 nM. Further, a half-maximal response at 5HT2A receptor [2] (setting [7]) (EC50) required 795 nM. Besides, the Emax at 5HT2A receptor [2] (setting [10]) is 64.4%.
In turn, `CCc1cccc2c(C3=CCCNC3)c(Cl)[nH]c12` [Example 66, 2-chloro-7-ethyl-3-(1,2,5,6-tetrahydropyridin-3-yl)-1H-indole] yielded a Ki on 5HT2A receptor [1] (setting [3]) of 115 nM. Moreover, the EC50 at 5HT2A receptor [2] (setting [4]) came out at 213 nM. The maximum response (Emax) at 5HT2A receptor [2] (setting [5]) turned out to be 79%.
`COc1ccnc2[nH]cc(C3=CCCNC3)c12` [Example 10, 4-methoxy-3-(1,2,5,6-tetrahydropyridin-3-yl)-1H-pyrrolo[2,3-b]pyridine]: at 5HT2A receptor [1] (setting [3]), the affinity, expressed as Ki, was 312 nM. The same molecule registered an EC50 on 5HT2A receptor [2] (setting [4]) of 125 nM. The Emax on 5HT2A receptor [2] (setting [5]) stood at 66.5%.
Regarding `CCCc1cccc2c(C3=CCCN(C)C3)c[nH]c12` [Example 244, 3-(1-methyl-1,2,5,6-tetrahydropyridin-3-yl)-7-propyl-1H-indole], the affinity at 5HT2A receptor [1] (setting [6]), expressed as Ki, was 1550 nM. The molecule also came in with an EC50 on 5HT2A receptor [2] (setting [7]) of 397 nM. The maximal effect (Emax) on 5HT2A receptor [2] (setting [8]) was determined as 77.2%.
Molecule `FC1(F)C2CCNCC21c1n[nH]c2c(Cl)cccc12` (stereo not drawn) [Example 188, 7-chloro-3-(7,7-difluoro-3-azabicyclo[4.1.0]heptan-1-yl)-1H-indazole] gave an inhibition constant (Ki) on 5HT2A receptor [1] (setting [6]) of 2100 nM. The molecule also returned a half-maximal effective concentration (EC50) at 5HT2A receptor [2] (setting [7]) of 1460 nM. Also, the Emax at 5HT2A receptor [2] (setting [8]) was 83.7%.
The molecule `CN1CCC=C(c2n[nH]c3cc(Cl)ccc23)C1` [Example 94, 6-chloro-3-(1-methyl-1,2,5,6-tetrahydropyridin-3-yl)-1H-indazole] came in with a Ki on 5HT2A receptor [1] (setting [3]) of 1300 nM. The molecule also showed an EC50 on 5HT2A receptor [2] (setting [4]) of 309 nM. For the same molecule, on 5HT2A receptor [2] (setting [5]), the Emax was 72.1%.
The matching figures for `CN1CCC=C(c2n[nH]c3ccc(C#N)cc23)C1` [Example 103, 3-(1-methyl-1,2,5,6-tetrahydropyridin-3-yl)-1H-indazole-5-carbonitrile]: 1390 nM, 612 nM and 64.9%.
With `Clc1cccc2c(C3=CCCCNC3)c[nH]c12` [Example 212, 7-chloro-3-(2,5,6,7-tetrahydro-1H-azepin-3-yl)-1H-indole], the Ki on 5HT2A receptor [1] (setting [6]) was determined as 6240 nM. For the same molecule, the EC50 on 5HT2A receptor [2] (setting [7]) is 655 nM. Also, on 5HT2A receptor [2] (setting [8]), the Emax was 72.5%.
As to `Clc1cccc2c(C3=CC4CCC3NC4)n[nH]c12` (stereo not drawn) [Example 223, 6-(7-chloro-1H-indazol-3-yl)-2-azabicyclo[2.2.2]oct-5-ene], on 5HT2A receptor [1] (setting [6]), the affinity, expressed as Ki, was 1920 nM. The molecule further had an EC50 at 5HT2A receptor [2] (setting [7]) of 717 nM. For the same molecule, the Emax at 5HT2A receptor [2] (setting [8]) was 89.7%.
Regarding `Fc1cc(F)c2[nH]cc(C3CNC3)c2c1` [Example 264, 3-(azetidin-3-yl)-5,7-difluoro-1H-indole], the Ki at 5HT2A receptor [1] (secondary binding assay, Cheng-Prusoff, read-out: 5HT2A Ki) came out at 98.8 nM. The EC50 on 5HT2A receptor [2] (setting [7]) stood at 165 nM. The Emax on 5HT2A receptor [2] (setting [10]) turned out to be 44.7%.
Molecule `c1cnc2[nH]cc(C34CNCCC3C4)c2c1` (stereo not drawn) [Example 268, 3-(3-azabicyclo[4.1.0]heptan-1-yl)-1H-pyrrolo[2,3-b]pyridine] yielded an inhibition constant (Ki) on 5HT2A receptor [1] (setting [6]) of 5940 nM. At 5HT2A receptor [2] (setting [7]), this molecule gave a concentration giving a half-maximal response (EC50) of 740 nM. Moreover, the Emax at 5HT2A receptor [2] (setting [10]) was 98%.
The matching figures for `CN1CCC=C(c2c[nH]c3cnccc23)C1` [Example 135, 3-(1-methyl-1,2,5,6-tetrahydropyridin-3-yl)-1H-pyrrolo[2,3-c]pyridine]: 3540 nM, 1610 nM and 77.8%.
Molecule `C1=C(c2c[nH]c3ncc(-c4ccccc4)cc23)CNCC1` [Example 4, 5-phenyl-3-(1,2,5,6-tetrahydropyridin-3-yl)-1H-pyrrolo[2,3-b]pyridine] gave a Ki on 5HT2A receptor [1] (setting [3]) of 613 nM. This molecule also gave a concentration giving a half-maximal response (EC50) on 5HT2A receptor [2] (setting [4]) of 294 nM. Also, the Emax at 5HT2A receptor [2] (setting [5]) was 67%.
